Key:
[1] = test system: ACE in serum; settings: HFFD rats; cited from earlier work
Protocol: Biosurfactants’ inhibitory activity was analyzed in vitro as well as in vivo, using an animal model, in the work of Zouari et al.. […] Moreover, the administration of B. subtilis SPB1 lipopeptides or atorvastatin in vivo, to hypercaloric high-fat–high-fructose diet (HFFD) rats, decr ...

[2] = ABTS radical cation assay (TEAC)
Protocol: (§1) The surfactin antioxidant activity was measured using ABTS, DPPH and FRAP assays. Each measurement was performed in triplicate. The ABTS assay was conducted according to Re et al.. In the first instance, radical cation (ABTS^•+) solution was prepared by mixing 7 mM ABTS stock solution (Sigma-Aldrich) with 2.45 mM potassium persulfate solution (Sigma-Aldrich). The mixture was incubated in the dark at room temperature for 12–16 h. Then, the reagent absorbance was adjusted to 0.7 (±0.02) at 734 nm, using distilled water as a blank. The antioxidant activity of the biosurfactant was determined by mixing 10 μL of surfactin (1 mg/mL) with 990 μL of ABTS^•+ solution. The absorbance was measured after 5 min incubation in the dark, using the Spark multimode microplate leader (Tecan Group Ltd., Männedorf, Switzerland), at 734 nm. The standard curve was prepared for Trolox ethanol solution (Sigma-Aldrich, St. Louis, MO, USA) in the range of 0–2000 μM. The activity of surfactin was expressed as the Trolox equivalent antioxidant capacity (TEAC [µM/g]).

[3] = Ferric reducing antioxidant power (FRAP, TEAC)
Protocol: as §1
Finally, the FRAP assay was conducted according to Benzie et al.. The reaction, performed at pH = 3.6, involved the reduction of Fe^3+ to Fe^2+ in the presence of 2,4,6-trypyridyl-s-triazine, followed by the formation of a colored complex. […]

[4] = test system: angiotensin-converting enzyme (ACE); experiment: ACE-inhibitory activity assay; format: biochemical
Protocol: The ACE-inhibitory activity assay was performed according to Udenigwe and Aluko [56] and quantified by a regression analysis of ACE-inhibitory activity (%) versus surfactin concentration. The IC50 value, i.e., the surfactin concentration (µg/mL) that causes 50% inhibition of ACE activity, was determined. The assay was carried out in triplicate.

[5] = DPPH free radical scavenging (TEAC)
Protocol: as §1, with “The standard curve was prepared for Trolox ethanol solution (Sigma-Aldrich, St. Louis, MO, USA) in the range of 0–2000 μM.” left out
In addition, the antioxidant activity of surfactin, expressed as the ability to scavenge DPPH free radicals, was investigated according to Xu et al.. […] The sample was centrifuged (12000 rpm) and the absorbance was measured using the Spark multimode microplate leader (Tecan Group Ltd., Männedorf, Switzerland) at 517 nm. The antioxidant activity of surfactin was expressed as Trolox equivalent (TEAC [µM/g]). […]

Molecule | reduction in ACE activity [1] [%] | TEAC, ABTS ([2]; 10 μL surfactin (1 mg/mL) + 990 μL ABTS•+, 5 min in the dark, 734 nm, Trolox standard 0–2000 μM, triplicate) [µM/g] | antioxidant activity (ABTS), in words ([2]; surfactin 1 mg/mL) | TEAC, FRAP ([3]; 50 μL surfactin (1 mg/mL) + 150 μL working solution, pH 3.6, 10 min, room temperature, 593 nm, Trolox standard, triplicate) [µM/g] | antioxidant activity (FRAP), in words ([3]; surfactin 1 mg/mL) | ACE inhibition, in words [4] | IC50, ACE-inhibitory activity ([4]; regression of ACE-inhibitory activity (%) versus surfactin concentration, triplicate) [µg/mL] | TEAC, DPPH ([5]; 10 μL surfactin (1 mg/mL) + 190 μL 0.1 mM DPPH in ethanol, 30 min in the dark, 517 nm, Trolox standard 0–1000 μM, triplicate) [µM/g] | antioxidant activity (DPPH), in words ([5]; surfactin 1 mg/mL)
CC(C)c1c(C(=O)Nc2ccccc2)c(-c2ccccc2)c(-c2ccc(F)cc2)n1CC[C@@H](O)C[C@@H](O)CC(=O)O [atorvastatin] | 24 |  |  |  |  |  |  |  | 
surfactin |  | 3.77 ± 0.22 | trace antioxidant activity | 0.76 ± 0.096 | trace antioxidant activity | strong inhibitory effect against ACE activity | 620 ± 40 | 11.67 ± 0.8 | trace antioxidant activity

Reference: paper PMC9505973, “Sustainable Production of Biosurfactant from Agro-Industrial Oil Wastes by Bacillus subtilis and Its Potential Application as Antioxidant and ACE Inhibitor” (International Journal of Molecular Sciences, 2022)
